Data as given in ChEMBL document CHEMBL1128822, “Synthesis and biological evaluation of 2,3-diarylthiophenes as selective Cox-2 and Cox-1 inhibitors” (Bioorg Med Chem Lett, 1995).

Experiments:
[1] = target: Prostaglandin G/H synthase 1 (Homo sapiens, UniProt P23219); test: Inhibitory activity against human COX-1 expressed in baculovirus infected Sf9 cells
[2] = target: T1, Prostaglandin G/H synthase 2 (Homo sapiens, UniProt P35354); test: Inhibitory activity against human COX-2 expressed in baculovirus infected Sf9 cells; type: cell-based
T1 sequence (P35354 whole entry): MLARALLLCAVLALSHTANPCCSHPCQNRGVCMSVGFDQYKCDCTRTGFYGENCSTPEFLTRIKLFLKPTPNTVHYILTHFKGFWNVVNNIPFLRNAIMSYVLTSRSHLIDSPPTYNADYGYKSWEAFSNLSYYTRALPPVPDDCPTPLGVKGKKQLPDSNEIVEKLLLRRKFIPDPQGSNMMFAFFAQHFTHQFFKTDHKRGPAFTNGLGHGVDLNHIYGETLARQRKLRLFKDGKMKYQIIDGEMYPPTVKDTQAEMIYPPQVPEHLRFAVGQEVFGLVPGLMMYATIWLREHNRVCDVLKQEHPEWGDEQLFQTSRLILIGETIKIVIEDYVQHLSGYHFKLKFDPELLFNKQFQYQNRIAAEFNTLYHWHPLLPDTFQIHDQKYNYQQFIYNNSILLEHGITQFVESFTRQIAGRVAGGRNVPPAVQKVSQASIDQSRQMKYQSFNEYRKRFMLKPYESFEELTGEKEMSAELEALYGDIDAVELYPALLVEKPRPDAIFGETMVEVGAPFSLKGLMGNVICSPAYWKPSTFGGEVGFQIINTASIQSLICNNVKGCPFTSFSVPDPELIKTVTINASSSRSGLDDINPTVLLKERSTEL

Sequence of Prostaglandin G/H synthase 1 (P23219 whole entry): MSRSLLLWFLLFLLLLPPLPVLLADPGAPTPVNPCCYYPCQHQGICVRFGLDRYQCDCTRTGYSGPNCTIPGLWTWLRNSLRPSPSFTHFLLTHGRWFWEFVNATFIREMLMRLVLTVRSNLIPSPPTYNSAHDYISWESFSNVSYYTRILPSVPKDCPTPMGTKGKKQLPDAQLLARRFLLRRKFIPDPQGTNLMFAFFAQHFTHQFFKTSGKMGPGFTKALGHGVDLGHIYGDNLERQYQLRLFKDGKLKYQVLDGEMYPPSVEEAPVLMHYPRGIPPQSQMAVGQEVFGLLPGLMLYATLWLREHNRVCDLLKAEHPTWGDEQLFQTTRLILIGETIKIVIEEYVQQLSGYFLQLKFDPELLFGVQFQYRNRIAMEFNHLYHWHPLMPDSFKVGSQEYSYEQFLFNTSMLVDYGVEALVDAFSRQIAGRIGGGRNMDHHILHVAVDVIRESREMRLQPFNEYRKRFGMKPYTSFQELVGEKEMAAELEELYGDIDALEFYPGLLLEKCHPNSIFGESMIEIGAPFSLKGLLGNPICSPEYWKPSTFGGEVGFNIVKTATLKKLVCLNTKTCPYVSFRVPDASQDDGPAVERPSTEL

| IC50 [1] | IC50 [2] | SMILES |
| --- | --- | --- |
| > 50000 nM | 7200 nM | CNS(=O)(=O)c1ccc(-c2ccsc2-c2ccc(F)cc2)cc1 |
| 980 nM | > 30000 nM | O=Cc1ccc(-c2ccsc2-c2ccc(F)cc2)cc1 |
| 1300 nM | 30 nM | NS(=O)(=O)c1ccc(-c2ccsc2-c2ccc(F)cc2)cc1 |
| > 100000 nM | 250 nM | CS(=O)(=O)c1ccc(-c2ccsc2-c2ccc(F)cc2)cc1 |
| > 50000 nM | > 30000 nM | CCS(=O)(=O)c1ccc(-c2ccsc2-c2ccc(F)cc2)cc1 |
| 15000 nM | > 30000 nM | C[S+]([O-])c1ccc(-c2ccsc2-c2ccc(F)cc2)cc1 (configuration not stated) |
| > 50000 nM | 5400 nM | CC(=O)NS(=O)(=O)c1ccc(-c2ccsc2-c2ccc(F)cc2)cc1 |
| > 50000 nM | 4300 nM | CS(=O)(=O)c1ccc(-c2sccc2-c2ccc(F)cc2)cc1 |
| 3200 nM | > 30000 nM | NC(=O)c1ccc(-c2ccsc2-c2ccc(F)cc2)cc1 |
| 750 nM | > 30000 nM | CC(=O)c1ccc(-c2ccsc2-c2ccc(F)cc2)cc1 |
| 2700 nM | 670 nM | NS(=O)(=O)c1ccc(-c2sccc2-c2ccc(F)cc2)cc1 |

Second part, the molecule before the results:

| SMILES | IC50 [1] | IC50 [2] |
| --- | --- | --- |
| OCc1ccc(-c2ccsc2-c2ccc(F)cc2)cc1 | 350 nM | > 30000 nM |
| N#Cc1ccc(-c2ccsc2-c2ccc(F)cc2)cc1 | 210 nM | > 30000 nM |
| O=C(O)Cc1ccc(-c2ccsc2-c2ccc(F)cc2)cc1 |  | > 30000 nM |
| O=C(O)c1ccc(-c2ccsc2-c2ccc(F)cc2)cc1 | > 50000 nM | > 30000 nM |
| COC(=O)c1ccc(-c2ccsc2-c2ccc(F)cc2)cc1 | 17000 nM | > 30000 nM |
| CC(C)(O)c1cc(-c2ccc(F)cc2)c(-c2ccc(S(N)(=O)=O)cc2)s1 | > 50000 nM | 1600 nM |
| COC(=O)c1cc(-c2ccc(S(N)(=O)=O)cc2)c(-c2ccc(F)cc2)s1 | 1000 nM | 70 nM |
| COC(=O)c1cc(-c2ccc(F)cc2)c(-c2ccc(S(N)(=O)=O)cc2)s1 | > 50000 nM | > 30000 nM |
| CC(C)(O)c1cc(-c2ccc(S(N)(=O)=O)cc2)c(-c2ccc(F)cc2)s1 | 5400 nM | 410 nM |
| CC(C)c1cc(-c2ccc(S(N)(=O)=O)cc2)c(-c2ccc(F)cc2)s1 | 230 nM | 10 nM |
| CSc1ccc(-c2ccsc2-c2ccc(F)cc2)cc1 | 340 nM | > 30000 nM |
| CS(=O)(=O)c1ccc(-c2sc(Br)cc2-c2ccc(F)cc2)cc1 | 1100 nM | 20 nM |
| C[Se](=O)(=O)c1ccc(-c2ccsc2-c2ccc(F)cc2)cc1 | 32000 nM | 550 nM |
